Patent US20250325529A1, “INHIBITORS OF FATTY ACID BINDING PROTEINS (FABPs), METHODS OF USE AND METHODS OF MAKING” (Celloram, inc., priority 2024, published 2025)

Experiments:
[1] = test system: Salmonella typhimurium tester strain TA1535; assay: Ames test (Bacterial Reverse Mutation Test), TA1535; type: cell-based
Protocol: (§1) PD152 (compound 2) was tested for genotoxic and cytotoxic side effects by Ames test. The Ames test is a Bacterial Reverse Mutation Test of mutagenicity that utilizes Salmonella typhimurium tester strains TA98, TA100, TA1535, TA1537 and Escherichia coli tester strain WP2 uvrA (pKM101), both in the presence and absence of S9.
(§2) The compound PD152 was tested at 10 concentrations (0.032-1000 μg/plate) in the presence of, or absence of, the hepatic enzyme S9.
(§3) The aniline FABP4/5 inhibitor compound, 2-((2-((2,4-dichloro-5-isopropoxyphenyl)amino)-2-oxoethyl)thio)-2-methylpropanoic acid (compound “B104” as disclosed in WO2023043803A1) also was tested for genotoxic and cytotoxic side effects by Ames test. B104 was tested using the Salmonella typhimurium tester stains TA98, TA100, TA1535, and TA1537, both in the presence and absence of the hepatic enzyme S9, at 5 concentrations (1.5-64 μg/plate).

[2] = test system: Salmonella typhimurium tester strains TA98, TA100, TA1535, TA1537 and Escherichia coli tester strain WP2 uvrA (pKM101); assay: Ames test, overall conclusion for the tested strains; type: cell-based; settings: presence and absence of S9
Protocol: as §1, §2, §3

[3] = test system: NOD mouse model of autoimmune type 1 diabetes; assay: NOD mouse model of autoimmune type 1 diabetes; type: in vivo, NOD/ShiLtJ mice; settings: female NOD mice
Protocol: Female NOD/ShiLtJ mice were purchased from Jackson's lab at age of 7 weeks. Mice were housed in a temperature-controlled facility (23° C., 12-h light/dark cycle). Weekly non-fasting blood glucose concentrations were measured in the morning by tail vein prick starting at 8 weeks of age by using a blood glucose test meter (OTUltra2 system, Lifescam, USA) and strips according to manufacturer's instruction. Any reading of blood glucose higher than 200 mg/dL was confirmed by another test 24 hours later. Diabetes was diagnosed by 2 consensus positive blood glucose tests higher than 200 mg/dL. At 13 weeks of age, mice were divided into 3 treatments groups (n=15/group) as followed: 1) control group, treated with vehicle (0.5% methyl cellulose, 1% Tween 80); 2) PD152 treated group (40 mg/Kg in vehicle); 3) anti-CD3 treated group (5 μg/mouse, in PBS). Groups 1 and 2 were treated by gavage 5 days a week throughout the duration of the experiment. Group 3 was treated by IV injection for only 5 consecutive days. Mice were sacrificed at the age of 27 weeks.
NOD mouse model of autoimmune type 1 diabetes was used to test the efficacy of FABP4/5 inhibitor PD152 on spontaneous development of the disease. […] Blood glucose levels were measured weekly for monitoring the incidence of diabetes until termination at 27 weeks of age. […]

[4] = test system: MB-231 cells; assay: Proliferation assay (Incucyte confluency), MB-231; type: cell-based; settings: Homo sapiens, 96 h, 4 days, read-out: IC50, inhibition of proliferation
Protocol: COS-7, MDA-MB-231, and HepG2, were cultured in Dulbecco's modified Eagle's medium (DMEM) supplemented with 10% fetal bovine serum (Invitrogen Life Sciences, Carlsbad, CA). BT-549, OVCAR5 and OVCAR8 cells were cultured in L-Glutamine containing RPMI medium supplemented with 10% fetal calf serum (Invitrogen Life Sciences, Carlsbad, CA). The primary Human Mammary Epithelial Cells (HMEC) were cultured in mammary epithelial cell complete medium (basal medium plus rH-Insulin (5 μg/mL); L-Glutamine (6 mM); Epinephrine (1 μM); Apo-Transferrin (5 μg/mL); rH-TGF-α (0.5 ng/mL); ExtractP (0.4%); Hydrocortisone Hemisuccinate (100 ng/mL)).
2000 cells were plated in each well of 96-well plate. The next day cells were treated with compounds and incubated in Incucyte for 4 days. Images taken every 4 hours for the duration of the time were analyzed to calculate percentage of confluency in response to the treatments. Growth inhibition was calculated as 1—(percentage of viable cells out of untreated cells).

[5] = test system: Salmonella typhimurium tester strain TA98; assay: Ames test (Bacterial Reverse Mutation Test), TA98; type: cell-based
Protocol: as §1, §2
The aniline FABP4/5 inhibitor compound, 2-((2-((2,4-dichloro-5-isopropoxyphenyl)amino)-2-oxoethyl)thio)-2-methylpropanoic acid (compound “B104” as disclosed in WO2023043803A1) also was tested for genotoxic and cytotoxic side effects by Ames test. […]

[6] = TA1535, absence of S9, 0.0312 μg/plate
[7] = TA1535, absence of S9, 0.1 μg/plate
[8] = TA1535, absence of S9, 0.316 μg/plate
[9] = TA1535, absence of S9, 1 μg/plate
[10] = TA1535, absence of S9, 3.16 μg/plate
[11] = TA1535, absence of S9, 10 μg/plate
[12] = TA1535, absence of S9, 31.6 μg/plate
[13] = TA1535, absence of S9, 100 μg/plate
[14] = TA1535, absence of S9, 316 μg/plate
[15] = TA1535, absence of S9, 1000 μg/plate
[16] = TA1535, presence of S9, 0.0312 μg/plate
[17] = TA1535, presence of S9, 0.1 μg/plate
[18] = TA1535, presence of S9, 0.316 μg/plate
[19] = TA1535, presence of S9, 1 μg/plate
[20] = TA1535, presence of S9, 3.16 μg/plate
[21] = TA1535, presence of S9, 10 μg/plate
[22] = TA1535, presence of S9, 31.6 μg/plate
[23] = TA1535, presence of S9, 100 μg/plate
[24] = TA1535, presence of S9, 316 μg/plate
[25] = TA1535, presence of S9, 1000 μg/plate
[26] = TA98, presence of S9, 0.0312 μg/plate
[27] = TA98, presence of S9, 0.1 μg/plate
[28] = TA98, presence of S9, 0.316 μg/plate
[29] = TA98, presence of S9, 1 μg/plate
[30] = TA98, presence of S9, 3.16 μg/plate
[31] = TA98, presence of S9, 10 μg/plate
[32] = TA98, presence of S9, 31.6 μg/plate
[33] = TA98, presence of S9, 100 μg/plate
[34] = TA98, presence of S9, 316 μg/plate
[35] = TA98, presence of S9, 1000 μg/plate

In the case of CC(C)Oc1nc(NC(=O)CSCC(=O)O)c(Cl)cc1Cl [PD152, 2-((2-((3,5-dichloro-6-isopropoxypyridin-2-yl)amino)-2-oxoethyl)thio)acetic acid], the Fold increase [1, 6] is reported as 1, the “Mean number of revertants” value [1, 6] is reported as 3 and the Fold increase [1, 7] is reported as 1. The “Mean number of revertants” value [1, 7] was 3, the Fold increase [1, 8] was 1 and the “Mean number of revertants” value [1, 8] was 3. For the same molecule, the Fold increase [1, 9] was 1, the “Mean number of revertants” value [1, 9] was 3 and the Fold increase [1, 10] was 1. The “Mean number of revertants” value [1, 10] was 3, the Fold increase [1, 11] was 1 and the “Mean number of revertants” value [1, 11] was 4. The Fold increase [1, 12] was 1, the “Mean number of revertants” value [1, 12] was 4 and the Fold increase [1, 13] was 1. For the same molecule, the “Mean number of revertants” value [1, 13] was 4, the Fold increase [1, 14] was 1 and the “Mean number of revertants” value [1, 14] was 3. For the same molecule, the Fold increase [1, 15] was 1, the “Mean number of revertants” value [1, 15] was 3 and the Fold increase [1, 16] was 1. For the same molecule, the “Mean number of revertants” value [1, 16] was 3, the Fold increase [1, 17] was 1 and the “Mean number of revertants” value [1, 17] was 4. For the same molecule, the Fold increase [1, 18] was 1, the “Mean number of revertants” value [1, 18] was 3 and the Fold increase [1, 19] was 1. For the same molecule, the “Mean number of revertants” value [1, 19] was 4, the Fold increase [1, 20] was 1 and the “Mean number of revertants” value [1, 20] was 4. The Fold increase [1, 21] was 1, the “Mean number of revertants” value [1, 21] was 4 and the Fold increase [1, 22] was 1. The “Mean number of revertants” value [1, 22] was 4, the Fold increase [1, 23] was 1 and the “Mean number of revertants” value [1, 23] was 4. For the same molecule, the Fold increase [1, 24] was 1, the “Mean number of revertants” value [1, 24] was 4 and the Fold increase [1, 25] was 1. The “Mean number of revertants” value [1, 25] was 4, the “Cytotoxicity to the tested strains” value [2] was “non-cytotoxic” and the “Mutagenicity in the Ames test” value [2] was “non-mutagenic”. For the same molecule, the Diabetes incidence ([3]; 40 mg/Kg by gavage 5 days a week from 13 weeks, by 27 weeks of age) was 46.7%, the “Lower blood glucose levels, difference to control” value ([3]; at 27 weeks of age) was “about 2 fold” and the IC50 [4] was 603 nM. The Fold increase [5, 26] was 1, the “Mean number of revertants” value [5, 26] was 6 and the Fold increase [5, 27] was 1. The “Mean number of revertants” value [5, 27] was 5, the Fold increase [5, 28] was 1 and the “Mean number of revertants” value [5, 28] was 6. The Fold increase [5, 29] was 1, the “Mean number of revertants” value [5, 29] was 6 and the Fold increase [5, 30] was 1. For the same molecule, the “Mean number of revertants” value [5, 30] was 6, the Fold increase [5, 31] was 1 and the “Mean number of revertants” value [5, 31] was 6. For the same molecule, the Fold increase [5, 32] was 1, the “Mean number of revertants” value [5, 32] was 6 and the Fold increase [5, 33] was 1. For the same molecule, the “Mean number of revertants” value [5, 33] was 6, the Fold increase [5, 34] was 1 and the “Mean number of revertants” value [5, 34] was 6. The Fold increase [5, 35] was 1 and the “Mean number of revertants” value [5, 35] was 5.
